According to patent US8173120B2, “Method of preventing reduced feed intake in animals and treatment of disease conditions” (Precision Nutrition Pty Ltd, priority 2005, dated 2012):

Legend:
[1] = test system: lactic acid producing bacteria; assay: in vitro function assay: lactic acid and pH after incubation of faecal/colonic samples from horses fed virginiamycin pellets; assay type: in vivo
Text: Twelve horses were housed individually and fed 2.5 kg/d of a commercial horse concentrate each morning. Approximately 6 kg of medium quality lucerne hay was fed after animals had consumed the concentrate.
The experiment was run in three periods with 4 animals in the stables during each period. Each period lasted 12 days: five days to allow adaptation to the stables and the dietary regime, and then 7 days when medicated pellets containing different concentrations of virginiamycin were fed. Faecal samples were taken on the day before feeding medicated feed and then on days 2, 4 and 6 of feeding the medicated pellets.
The effectiveness of each dose rate and time on treatment was determined using an in vitro function assay to determine the amount of lactic acid produced during in vitro incubation of faecal material or samples taken from the distal colon. The fermentation of faecal material was carried out as follows. Fresh faecal material was obtained prior to the morning feed. Where warm material was available in the stable this was used, otherwise a rectal sample was obtained. A sub-sample of 150 g was mixed with an equal volume of distilled water and then strained through nylon gauze. Aliquots of supernatant were dispensed into 3 replicate tubes (4 ml/tube) and 1 ml of glucose solution (50 mg glucose/ml) was added before pricking the lid of the plastic vial with a 25 g needle and incubating for 20 to 24 hours at 37°. Following incubation the measurements of pH were made before centrifugation of a sub-sample prior to L-lactic acid analysis.
The results of the in vitro function assay are summarised in Tables 2 and 3 and represented graphically in FIG. 3. It is relevant to note that the level of glucose used in the in vitro incubations is effectively higher than any amount of carbohydrate which could be used in vivo. In the in vitro model, no volatile fatty acids are removed from the incubation flask through “absorption”.
The result of this is that the pH drops in vitro by more than it would in vivo and that a lactate-based fermentation develops more readily. It is therefore probably unrealistic to expect that lactate production can be completely controlled in this in vitro incubation model. Initially it was considered that the “baseline” in the in vitro model could be set around 10 mmol/L for an effective dose rate of virginiamycin. However, given the variable response around the 0.5 mg/kg dose rate in terms of lactic acid accumulation in the in vitro model it may be advisable to set a lower threshold for mean lactic acid concentration in determining the effective dose rate.

[2] = feed intake on introduction of virginiamycin into the diet (general statements); assay type: in vivo, sheep, cattle and horses
[3] = horses, very high concentrations (500 mg/kg complete feed); cited from earlier work
[4] = horse 1, 640 mg/d, 1.422 mg/kg, 2 days on medicated feed
[5] = horse 1, 640 mg/d, 1.422 mg/kg, 6 days on medicated feed
[6] = horse 2, 160 mg/d, 0.343 mg/kg, 2 days on medicated feed
[7] = horse 2, 160 mg/d, 0.343 mg/kg, 4 days on medicated feed
[8] = horse 3, 1280 mg/d, 2.639 mg/kg, 2 days on medicated feed
[9] = horse 3, 1280 mg/d, 2.639 mg/kg, 4 days on medicated feed
[10] = horse 3, 1280 mg/d, 2.639 mg/kg, 6 days on medicated feed
[11] = horse 4, 20 mg/d, 0.042 mg/kg, 2 days on medicated feed
[12] = horse 4, 20 mg/d, 0.042 mg/kg, 4 days on medicated feed
[13] = horse 4, 20 mg/d, 0.042 mg/kg, 6 days on medicated feed
[14] = horse 5, 160 mg/d, 0.359 mg/kg, 2 days on medicated feed
[15] = horse 5, 160 mg/d, 0.359 mg/kg, 4 days on medicated feed
[16] = horse 5, 160 mg/d, 0.359 mg/kg, 6 days on medicated feed
[17] = horse 6, 40 mg/d, 0.091 mg/kg, 2 days on medicated feed
[18] = horse 6, 40 mg/d, 0.091 mg/kg, 4 days on medicated feed
[19] = horse 7, 640 mg/d, 1.475 mg/kg, 2 days on medicated feed
[20] = horse 7, 640 mg/d, 1.475 mg/kg, 4 days on medicated feed
[21] = horse 7, 640 mg/d, 1.475 mg/kg, 6 days on medicated feed
[22] = horse 8, 80 mg/d, 0.154 mg/kg, 2 days on medicated feed
[23] = horse 8, 80 mg/d, 0.154 mg/kg, 6 days on medicated feed
[24] = horse 9, 80 mg/d, 0.180 mg/kg, 2 days on medicated feed
[25] = horse 9, 80 mg/d, 0.180 mg/kg, 4 days on medicated feed
[26] = horse 10, 320 mg/d, 0.702 mg/kg, 2 days on medicated feed
[27] = horse 10, 320 mg/d, 0.702 mg/kg, 4 days on medicated feed
[28] = horse 11, 160 mg/d, 0.432 mg/kg, 2 days on medicated feed
[29] = horse 11, 160 mg/d, 0.432 mg/kg, 6 days on medicated feed
[30] = horse 12, 320 mg/d, 0.693 mg/kg, 2 days on medicated feed
[31] = horse 12, 320 mg/d, 0.693 mg/kg, 6 days on medicated feed

virginiamycin
control of lactic acid production ([1]; 0.4 to 0.7 mg per kg bodyweight per day, after three to four days): partial and variable levels of controlling lactic acid production | control of lactic acid producing bacteria in faecal/colonic digesta ([1]; 1.4 and 2.6 mg/kg body weight, 48 hours after first treatment): good control of lactic acid producing bacteria | capacity for lactic acid production ([1]; 1.4 and 2.6 mg/kg body weight, days 4 and 6 as well as day 2): remained low | capacity for lactic acid production ([1]; average of 0.4 and 0.7 mg/kg bodyweight per day, days 2, 4 and 6, response more variable and less complete than higher dose rates): reduction in capacity for lactic acid production | control of lactic acid production ([1]; dose rates over 1.4 mg per kg body weight, after two days of treatment): almost complete control | L-lactate concentration following incubation of faecal samples, Mean [1, 4]: 0 mmol/L | pH measured following incubation of faecal samples, Mean [1, 4]: 5.11 | L-lactate concentration following incubation of faecal samples, Mean [1, 5]: 4 mmol/L | pH measured following incubation of faecal samples, Mean [1, 5]: 4.94 | L-lactate concentration following incubation of faecal samples, Mean [1, 6]: 17 mmol/L | pH measured following incubation of faecal samples, Mean [1, 6]: 4.61 | L-lactate concentration following incubation of faecal samples, Mean [1, 7]: 21 mmol/L | pH measured following incubation of faecal samples, Mean [1, 7]: 4.76 | L-lactate concentration following incubation of faecal samples, Mean ([1]; horse 2, 160 mg/d, 0.343 mg/kg, 6 days on medicated feed): 12 mmol/L | L-lactate concentration following incubation of faecal samples, Mean [1, 8]: 0 mmol/L | pH measured following incubation of faecal samples, Mean [1, 8]: 4.43 | L-lactate concentration following incubation of faecal samples, Mean [1, 9]: 0 mmol/L | pH measured following incubation of faecal samples, Mean [1, 9]: 4.71 | L-lactate concentration following incubation of faecal samples, Mean [1, 10]: 1 mmol/L | pH measured following incubation of faecal samples, Mean [1, 10]: 4.59 | L-lactate concentration following incubation of faecal samples, Mean [1, 11]: 47 mmol/L | pH measured following incubation of faecal samples, Mean [1, 11]: 3.63 | L-lactate concentration following incubation of faecal samples, Mean [1, 12]: 47 mmol/L | pH measured following incubation of faecal samples, Mean [1, 12]: 4.02 | L-lactate concentration following incubation of faecal samples, Mean [1, 13]: 31 mmol/L | pH measured following incubation of faecal samples, Mean [1, 13]: 4.28 | L-lactate concentration following incubation of faecal samples, Mean [1, 14]: 0 mmol/L | pH measured following incubation of faecal samples, Mean [1, 14]: 4.48 | L-lactate concentration following incubation of faecal samples, Mean [1, 15]: 0 mmol/L | pH measured following incubation of faecal samples, Mean [1, 15]: 4.73 | L-lactate concentration following incubation of faecal samples, Mean [1, 16]: 0 mmol/L | pH measured following incubation of faecal samples, Mean [1, 16]: 5.09 | L-lactate concentration following incubation of faecal samples, Mean [1, 17]: 23 mmol/L | pH measured following incubation of faecal samples, Mean [1, 17]: 4.11 | L-lactate concentration following incubation of faecal samples, Mean [1, 18]: 25 mmol/L | pH measured following incubation of faecal samples, Mean [1, 18]: 4.11 | L-lactate concentration following incubation of faecal samples, Mean ([1]; horse 6, 40 mg/d, 0.091 mg/kg, 6 days on medicated feed): 24 mmol/L | L-lactate concentration following incubation of faecal samples, Mean [1, 19]: 1 mmol/L | pH measured following incubation of faecal samples, Mean [1, 19]: 4.85 | L-lactate concentration following incubation of faecal samples, Mean [1, 20]: 1 mmol/L | pH measured following incubation of faecal samples, Mean [1, 20]: 4.64 | L-lactate concentration following incubation of faecal samples, Mean [1, 21]: 1 mmol/L | pH measured following incubation of faecal samples, Mean [1, 21]: 4.67 | L-lactate concentration following incubation of faecal samples, Mean [1, 22]: 5 mmol/L | pH measured following incubation of faecal samples, Mean [1, 22]: 4.41 | L-lactate concentration following incubation of faecal samples, Mean [1, 23]: 44 mmol/L | pH measured following incubation of faecal samples, Mean [1, 23]: 4.36 | L-lactate concentration following incubation of faecal samples, Mean [1, 24]: 4 mmol/L | pH measured following incubation of faecal samples, Mean [1, 24]: 4.83 | L-lactate concentration following incubation of faecal samples, Mean [1, 25]: 37 mmol/L | pH measured following incubation of faecal samples, Mean [1, 25]: 4.25 | L-lactate concentration following incubation of faecal samples, Mean ([1]; horse 9, 80 mg/d, 0.180 mg/kg, 6 days on medicated feed): 29 mmol/L | L-lactate concentration following incubation of faecal samples, Mean [1, 26]: 1 mmol/L | pH measured following incubation of faecal samples, Mean [1, 26]: 4.67 | L-lactate concentration following incubation of faecal samples, Mean [1, 27]: 1 mmol/L | pH measured following incubation of faecal samples, Mean [1, 27]: 5.06 | L-lactate concentration following incubation of faecal samples, Mean ([1]; horse 10, 320 mg/d, 0.702 mg/kg, 6 days on medicated feed): 15 mmol/L | L-lactate concentration following incubation of faecal samples, Mean [1, 28]: 4 mmol/L | pH measured following incubation of faecal samples, Mean [1, 28]: 4.54 | L-lactate concentration following incubation of faecal samples, Mean [1, 29]: 19 mmol/L | pH measured following incubation of faecal samples, Mean [1, 29]: 4.12 | L-lactate concentration following incubation of faecal samples, Mean [1, 30]: 36 mmol/L | pH measured following incubation of faecal samples, Mean [1, 30]: 3.85 | L-lactate concentration following incubation of faecal samples, Mean [1, 31]: 3 mmol/L | pH measured following incubation of faecal samples, Mean [1, 31]: 4.93 | prevention of over production of lactic acid ([1]; horses, low dose rates such as 0.1 mg per kg bodyweight per day): may not be effective in preventing over production of lactic acid | feed intake compared to pre-medication levels ([2]; gradually increasing doses): no detectable decrease in feed intake | feed intake, average, of the pretreatment level ([2]; sudden introduction of the full dose rate): around 80% | reduction of feed intake ([2]; sudden introduction to sheep, cattle or horses at 0.5 mg per kg body weight and above, or 20 g/tonne and above): ≥ 20% | effect on feed intake [3]: reduce feed intake
